Data taken from US9765092B2, “Tricyclic piperidine compounds” (ACTELION PHARMACEUTICALS LTD, priority 2013, dated 2017).
pIC50: −log10 of the molar value.

What follows are compounds tested against human TPH1 (Homo sapiens (Human), UniProt P17752) (assay: Biochemical in vitro assay using fluorescence readout (TPH1 inhibition)). Conditions: human TPH1, fluorescence readout.
human TPH1, sequence (P17752 whole entry): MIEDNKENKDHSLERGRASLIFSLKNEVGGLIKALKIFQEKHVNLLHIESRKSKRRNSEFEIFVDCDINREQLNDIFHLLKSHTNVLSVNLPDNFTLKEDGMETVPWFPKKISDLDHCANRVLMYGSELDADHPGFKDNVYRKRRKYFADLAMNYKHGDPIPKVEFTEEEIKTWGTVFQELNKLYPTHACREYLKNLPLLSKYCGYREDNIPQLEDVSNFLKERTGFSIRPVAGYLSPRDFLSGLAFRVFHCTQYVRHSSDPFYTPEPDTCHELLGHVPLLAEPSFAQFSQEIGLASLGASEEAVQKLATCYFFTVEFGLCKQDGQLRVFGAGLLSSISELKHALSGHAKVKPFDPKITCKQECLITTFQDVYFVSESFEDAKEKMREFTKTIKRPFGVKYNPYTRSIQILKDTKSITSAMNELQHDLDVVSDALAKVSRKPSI

`CC(=O)Nc1ccc(C2c3c(nc4sc(C)nn34)CCN2C(=O)COc2ccc(N3CCOCC3)nc2Cl)s1` (stereo not drawn) [Example 1.13.1, N-(5-(6-(2-((2-chloro-6-morpholinopyridin-3-yl)oxy)acetyl)-2-methyl-5,6,7,8-tetrahydro-[1,3,4]thiadiazolo [2′,3′:2,3]imidazo[4,5-c]pyridin-5-yl)thiophen-2-yl)acetamide] was tested. Which pIC50 did it give?
The pIC50 was 7.27.

How did the pIC50 turn out when `Cc1nn2c3c(nc2s1)CCN(C(=O)COc1ccc(N2CCOCC2)nc1Cl)C3c1ncc(C2CC2)cc1F` (stereo not drawn) [Example 1.14.1, 2-((2-chloro-6-morpholinopyridin-3-yl)oxy)-1-(5-(5-cyclopropyl-3-fluoropyridin-2-yl)-2-methyl-7,8-dihydro-[1,3,4]thiadiazolo[2′,3′:2,3]imidazo[4,5-c]pyridin-6(5H)-yl)ethanone] was run?
The pIC50 was 8.40.

With `CCc1nc(C)ccc1OCC(=O)N1CCc2nc3sc(C)nn3c2C1c1ncc(C2CC2)cc1F` (stereo not drawn) [Example 1.14.2, 1-(5-(5-cyclopropyl-3-fluoropyridin-2-yl)-2-methyl-7,8-dihydro-[1,3,4]thiadiazolo[2′,3′:2,3]imidazo[4,5-c]pyridin-6(5H)-yl)-2-((2-ethyl-6-methylpyridin-3-yl)oxy)ethanone] as the compound, how does the pIC50 read?
The pIC50 was 8.22.

`Cc1nn2c3c(nc2s1)CCN(C(=O)COc1ccc(C(F)(F)F)nc1Cl)C3c1ncc(C2CC2)cc1F` (stereo not drawn) [Example 1.14.3, 2-((2-chloro-6-(trifluoromethyl)pyridin-3-yl)oxy)-1-(5-(5-cyclopropyl-3-fluoropyridin-2-yl)-2-methyl-7,8-dihydro-[1,3,4]thiadiazolo[2′,3′:2,3]imidazo[4,5-c]pyridin-6(5H)-yl)ethanone] was tested. Which pIC50 did it give?
The pIC50 was 7.77.

`Cc1nn2c3c(nc2s1)CCN(C(=O)COc1ccc(C#N)nc1Cl)C3c1ncc(C2CC2)cc1F` (stereo not drawn) [Example 1.14.4, 6-chloro-5-(2-(5-(5-cyclopropyl-3-fluoropyridin-2-yl)-2-methyl-7,8-dihydro-[1,3,4]thiadiazolo[2′,3′:2,3]imidazo[4,5-c]pyridin-6(5H)-yl)-2-oxoethoxy)picolinonitrile] was tested. Which pIC50 did it give?
The pIC50 was 7.77.

With `Cc1nn2c3c(nc2s1)CCN(C(=O)COc1ccc(N2CCOCC2)nc1F)C3c1ncc(C2CC2)cc1F` (stereo not drawn) [Example 1.14.5, 1-(5-(5-cyclopropyl-3-fluoropyridin-2-yl)-2-methyl-7,8-dihydro-[1,3,4]thiadiazolo[2′,3′:2,3]imidazo[4,5-c]pyridine-6(5H)-yl)-2-((2-fluoro-6-morpholinopyridin-3-yl)oxy)ethanone] as the compound, how does the pIC50 read?
Its pIC50 is 8.05.

With `Cc1nn2c3c(nc2s1)CCN(C(=O)COc1cc(F)c(I)nc1Cl)C3c1ncc(C2CC2)cc1F` (stereo not drawn) [Example 1.14.6, 2-((2-chloro-5-fluoro-6-iodopyridin-3-yl)oxy)-1-(5-(5-cyclopropyl-3-fluoropyridin-2-yl)-2-methyl-7,8-dihydro-[1,3,4]thiadiazolo[2′,3′:2,3]imidazo[4,5-c]pyridin-6(5H)-yl)ethanone] as the compound, how does the pIC50 read?
Its pIC50 is 8.22.

`Cc1nn2c3c(nc2s1)CCN(C(=O)COc1cc(F)cnc1Cl)C3c1ncc(C2CC2)cc1F` (stereo not drawn) [Example 1.14.7, 2-((2-chloro-5-fluoropyridin-3-yl)oxy)-1-(5-(5-cyclopropyl-3-fluoropyridin-2-yl)-2-methyl-7,8-dihydro-[1,3,4]thiadiazolo [2′,3′:2,3]imidazo[4,5-c]pyridin-6(5H)-yl)ethanone] was tested. Which pIC50 did it give?
Its pIC50 is 7.60.

With `Cc1nn2c3c(nc2s1)CCN(C(=O)COc1ccc(C(=O)N(C)C)nc1Cl)C3c1ncc(C2CC2)cc1F` (stereo not drawn) [Example 1.14.8, 6-chloro-5-(2-(5-(5-cyclopropyl-3-fluoropyridin-2-yl)-2-methyl-7,8-dihydro-[1,3,4]thiadiazolo[2′,3′:2,3]imidazo[4,5-c]pyridin-6(5H)-yl)-2-oxoethoxy)-N,N-dimethylpicolinamide] as the compound, how does the pIC50 read?
The pIC50 was 8.52.

How did the pIC50 turn out when `Cc1nn2c3c(nc2s1)CCN(C(=O)COc1cc(F)c(N2CCOCC2)nc1Cl)C3c1ncc(C2CC2)cc1F` (stereo not drawn) [Example 1.14.9, 2-((2-chloro-5-fluoro-6-morpholinopyridin-3-yl)oxy)-1-(5-(5-cyclopropyl-3-fluoropyridin-2-yl)-2-methyl-7,8-dihydro-[1,3,4]thiadiazolo[2′,3′:2,3]imidazo[4,5-c]pyridin-6(5H)-yl)ethanone] was run?
Its pIC50 is 8.40.

How did the pIC50 turn out when `Cc1nn2c3c(nc2s1)CCN(C(=O)COc1ccc(N(C)CC(F)(F)F)nc1Cl)C3c1ncc(C2CC2)cc1F` (stereo not drawn) [Example 1.14.10, 2-((2-chloro-6-(methyl(2,2,2-trifluoroethyl)amino)pyridin-3-yl)oxy)-1-(5-(5-cyclopropyl-3-fluoropyridin-2-yl)-2-methyl-7,8-dihydro-[1,3,4]thiadiazolo[2′,3′:2,3]imidazo[4,5-c]pyridin-6(5H)-yl)ethanone] was run?
Its pIC50 is 8.40.

How did the pIC50 turn out when `Cc1nn2c3c(nc2s1)CCN(C(=O)COc1c(Cl)nc(N2CCOCC2)c(F)c1F)C3c1ncc(C2CC2)cc1F` (stereo not drawn) [Example 1.14.11, 2-((2-chloro-4,5-difluoro-6-morpholinopyridin-3-yl)oxy)-1-(5-(5-cyclopropyl-3-fluoropyridin-2-yl)-2-methyl-7,8-dihydro-[1,3,4]thiadiazolo[2′,3′:2,3]imidazo[4,5-c]pyridin-6(5H)-yl)ethanone] was run?
Its pIC50 is 6.91.

With `Cc1nn2c3c(nc2s1)CCN(C(=O)COc1c(F)cc(N2CCOCC2)nc1Cl)C3c1ncc(C2CC2)cc1F` (stereo not drawn) [Example 1.14.12, 2-((2-chloro-4-fluoro-6-morpholinopyridin-3-yl)oxy)-1-(5-(5-cyclopropyl-3-fluoropyridin-2-yl)-2-methyl-7,8-dihydro-[1,3,4]thiadiazolo[2′,3′:2,3]imidazo[4,5-c]pyridin-6(5H)-yl)ethanone] as the compound, how does the pIC50 read?
Its pIC50 is 7.39.

`Cc1nn2c3c(nc2s1)CCN(C(=O)COc1ccc(NS(C)(=O)=O)nc1Cl)C3c1ncc(C2CC2)cc1F` (stereo not drawn) [Example 1.14.13, N-(6-chloro-5-(2-(5-(5-cyclopropyl-3-fluoropyridin-2-yl)-2-methyl-7,8-dihydro-[1,3,4]thiadiazolo[2′,3′:2,3]imidazo[4,5-c]pyridin-6(5H)-yl)-2-oxoethoxy)pyridin-2-yl)methanesulfonamide] was tested. Which pIC50 did it give?
Its pIC50 is 8.15.

With `Cc1nn2c3c(nc2s1)CCN(C(=O)COc1ccc(N(C)C)nc1Cl)C3c1cnc(OC(F)F)cc1C` (stereo not drawn) [Example 1.15.1, 2-((2-chloro-6-(dimethylamino)pyridin-3-yl)oxy)-1-(5-(6-(difluoromethoxy)-4-methylpyridin-3-yl)-2-methyl-7,8-dihydro-[1,3,4]thiadiazolo[2′,3′:2,3]imidazo[4,5-c]pyridin-6(5H)-yl)ethanone] as the compound, how does the pIC50 read?
Its pIC50 is 7.24.

With `Cc1nn2c3c(nc2s1)CCN(C(=O)COc1ccc(N2CCOCC2)nc1Cl)C3c1cnc(OC(F)F)cc1C` (stereo not drawn) [Example 1.15.2, 2-((2-chloro-6-morpholinopyridin-3-yl)oxy)-1-(5-(6-(difluoromethoxy)-4-methylpyridin-3-yl)-2-methyl-7,8-dihydro-[1,3,4]thiadiazolo[2′,3′:2,3]imidazo[4,5-c]pyridin-6(5H)-yl)ethanone] as the compound, how does the pIC50 read?
Its pIC50 is 8.15.

`CCc1nc(C)ccc1OCC(=O)N1CCc2nc3sc(C)nn3c2C1c1cnc(OC(F)F)cc1C` (stereo not drawn) [Example 1.15.3, 1-(5-(6-(difluoromethoxy)-4-methylpyridin-3-yl)-2-methyl-7,8-dihydro-[1,3,4]thiadiazolo[2′,3′:2,3]imidazo[4,5c]pyridin-6(5H)-yl)-2-((2-ethyl-6-methylpyridin-3-yl)oxy)ethanone] was tested. Which pIC50 did it give?
Its pIC50 is 6.81.

How did the pIC50 turn out when `Cc1nn2c3c(nc2s1)CCN(C(=O)COc1ccc(N(C)C)nc1Cl)C3c1ccc(Cl)nc1F` (stereo not drawn) [Example 1.16.1, 1-(5-(6-chloro-2-fluoropyridin-3-yl)-2-methyl-7,8-dihydro-[1,3,4]thiadiazolo[2′,3′:2,3]imidazo[4,5-c]pyridin-6(5H)-yl)-2-((2-chloro-6-(dimethylamino)pyridin-3-yl)oxy)ethanone] was run?
Its pIC50 is 8.30.

With `Cc1nn2c3c(nc2s1)CCN(C(=O)COc1ccc(S(N)(=O)=O)cc1C)C3c1ccc(Cl)nc1F` (stereo not drawn) [Example 1.16.2, 4-(2-(5-(6-chloro-2-fluoropyridin-3-yl)-2-methyl-7,8-dihydro-[1,3,4]thiadiazolo[2′,3′:2,3]imidazo[4,5-c]pyridin-6(5H)-yl)-2-oxoethoxy)-3-methylbenzenesulfonamide] as the compound, how does the pIC50 read?
The pIC50 was 7.13.

How did the pIC50 turn out when `CNc1ccc(OCC(=O)N2CCc3nc4sc(C)nn4c3C2c2ccc(Cl)nc2F)c(Cl)n1` (stereo not drawn) [Example 1.16.3, 1-(5-(6-chloro-2-fluoropyridin-3-yl)-2-methyl-7,8-dihydro-[1,3,4]thiadiazolo[2′,3′:2,3]imidazo[4,5-c]pyridin-6(5H)-yl)-2-((2-chloro-6-(methylamino)pyridin-3-yl)oxy)ethanone] was run?
Its pIC50 is 8.10.

How did the pIC50 turn out when `Cc1nn2c3c(nc2s1)CCN(C(=O)COc1ccc(C(F)(F)F)nc1Cl)C3c1ccc(Cl)nc1F` (stereo not drawn) [Example 1.16.4, 1-(5-(6-chloro-2-fluoropyridin-3-yl)-2-methyl-7,8-dihydro-[1,3,4]thiadiazolo[2′,3′:2,3]imidazo[4,5-c]pyridin-6(5H)-yl)-2-((2-chloro-6-(trifluoromethyl)pyridin-3-yl)oxy)ethanone] was run?
Its pIC50 is 7.57.

How did the pIC50 turn out when `Cc1nn2c3c(nc2s1)CCN(C(=O)COc1ccc(C#N)nc1Cl)C3c1ccc(Cl)nc1F` (stereo not drawn) [Example 1.16.5, 6-chloro-5-(2-(5-(6-chloro-2-fluoropyridin-3-yl)-2-methyl-7,8-dihydro-[1,3,4]thiadiazolo[2′,3′:2,3]imidazo[4,5-c]pyridin-6(5H)-yl)-2-oxoethoxy)picolinonitrile] was run?
Its pIC50 is 7.46.

With `Cc1nn2c3c(nc2s1)CCN(C(=O)COc1ccc(C(F)(F)F)cc1Cl)C3c1ccc(Cl)nc1F` (stereo not drawn) [Example 1.16.7, 1-(5-(6-chloro-2-fluoropyridin-3-yl)-2-methyl-7,8-dihydro-[1,3,4]thiadiazolo[2′,3′:2,3]imidazo[4,5-c]pyridin-6(5H)-yl)-2-(2-chloro-4-(trifluoromethyl)phenoxy)ethanone] as the compound, how does the pIC50 read?
The pIC50 was 8.30.

With `Cc1nn2c3c(nc2s1)CCN(C(=O)COc1ccc(N2CCOCC2)nc1Cl)C3c1nc(CN(C)C)cs1` (stereo not drawn) [Example 1.17.1, 2-((2-chloro-6-morpholinopyridin-3-yl)oxy)-1-(5-(4-((dimethylamino)methyl)thiazol-2-yl)-2-methyl-7,8-dihydro-[1,3,4]thiadiazolo[2′,3′:2,3]imidazo[4,5-c]pyridin-6(5H)-yl)ethanone] as the compound, how does the pIC50 read?
Its pIC50 is 7.21.
